Experimental data from BigSolDB 2.1.

SMILES: CC(=O)[C@H]1CC[C@H]2[C@@H]3CCC4=CC(=O)CC[C@]4(C)[C@H]3CC[C@]12C
- solubility (mole fraction) (in 1,4-dioxane, 288.15 K): 0.0614
- solubility (mole fraction) (in 1,4-dioxane, 293.15 K): 0.073
- solubility (mole fraction) (in 1,4-dioxane, 298.15 K): 0.0855
- solubility (mole fraction) (in 1,4-dioxane, 303.15 K): 0.1
- solubility (mole fraction) (in 1,4-dioxane, 308.15 K): 0.117
- solubility (mole fraction) (in 1,4-dioxane, 313.15 K): 0.136
- solubility (mole fraction) (in 1,4-dioxane, 318.15 K): 0.156
- solubility (mole fraction) (in 1,4-dioxane, 323.15 K): 0.179
- solubility (mole fraction) (in THF, 278.15 K): 0.0598
- solubility (mole fraction) (in THF, 283.15 K): 0.0701
- solubility (mole fraction) (in THF, 288.15 K): 0.0816
- solubility (mole fraction) (in THF, 293.15 K): 0.0943
- solubility (mole fraction) (in THF, 298.15 K): 0.109
- solubility (mole fraction) (in THF, 303.15 K): 0.125
- solubility (mole fraction) (in THF, 308.15 K): 0.143
- solubility (mole fraction) (in THF, 313.15 K): 0.163
- solubility (mole fraction) (in THF, 318.15 K): 0.185
- solubility (mole fraction) (in THF, 323.15 K): 0.209
- solubility (mole fraction) (in acetone, 278.15 K): 0.0143
- solubility (mole fraction) (in acetone, 283.15 K): 0.0187
- solubility (mole fraction) (in acetone, 288.15 K): 0.0244
- solubility (mole fraction) (in acetone, 293.15 K): 0.0311
- solubility (mole fraction) (in acetone, 298.15 K): 0.0397
- solubility (mole fraction) (in acetone, 303.15 K): 0.0494
- solubility (mole fraction) (in acetone, 308.15 K): 0.0617
- solubility (mole fraction) (in acetone, 313.15 K): 0.076
- solubility (mole fraction) (in acetone, 318.15 K): 0.094
- solubility (mole fraction) (in acetone, 323.15 K): 0.116
- solubility (mole fraction) (in acetonitrile, 278.15 K): 0.00716
- solubility (mole fraction) (in acetonitrile, 283.15 K): 0.0101
- solubility (mole fraction) (in acetonitrile, 288.15 K): 0.0131
- solubility (mole fraction) (in acetonitrile, 293.15 K): 0.0178
- solubility (mole fraction) (in acetonitrile, 298.15 K): 0.0235
- solubility (mole fraction) (in acetonitrile, 303.15 K): 0.0305
- solubility (mole fraction) (in acetonitrile, 308.15 K): 0.0396
- solubility (mole fraction) (in acetonitrile, 313.15 K): 0.0508
- solubility (mole fraction) (in acetonitrile, 318.15 K): 0.0646
- solubility (mole fraction) (in acetonitrile, 323.15 K): 0.0816
- solubility (mole fraction) (in ethanol, 278.15 K): 0.00337
- solubility (mole fraction) (in ethanol, 283.15 K): 0.00455
- solubility (mole fraction) (in ethanol, 288.15 K): 0.00623
- solubility (mole fraction) (in ethanol, 293.15 K): 0.00859
- solubility (mole fraction) (in ethanol, 298.15 K): 0.0112
- solubility (mole fraction) (in ethanol, 303.15 K): 0.0146
- solubility (mole fraction) (in ethanol, 308.15 K): 0.0192
- solubility (mole fraction) (in ethanol, 313.15 K): 0.0251
- solubility (mole fraction) (in ethanol, 318.15 K): 0.0319
- solubility (mole fraction) (in ethanol, 323.15 K): 0.0411
- solubility (mole fraction) (in ethyl acetate, 278.15 K): 0.0142
- solubility (mole fraction) (in ethyl acetate, 283.15 K): 0.0175
- solubility (mole fraction) (in ethyl acetate, 288.15 K): 0.0215
- solubility (mole fraction) (in ethyl acetate, 293.15 K): 0.0266
- solubility (mole fraction) (in ethyl acetate, 298.15 K): 0.0321
- solubility (mole fraction) (in ethyl acetate, 303.15 K): 0.039
- solubility (mole fraction) (in ethyl acetate, 308.15 K): 0.0471
- solubility (mole fraction) (in ethyl acetate, 313.15 K): 0.0566
- solubility (mole fraction) (in ethyl acetate, 318.15 K): 0.0671
- solubility (mole fraction) (in ethyl acetate, 323.15 K): 0.0802
- solubility (mole fraction) (in isopropanol, 278.15 K): 0.00314
- solubility (mole fraction) (in isopropanol, 283.15 K): 0.00446
- solubility (mole fraction) (in isopropanol, 288.15 K): 0.00615
- solubility (mole fraction) (in isopropanol, 293.15 K): 0.00841
- solubility (mole fraction) (in isopropanol, 298.15 K): 0.0115
- solubility (mole fraction) (in isopropanol, 303.15 K): 0.0153
- solubility (mole fraction) (in isopropanol, 308.15 K): 0.0203
- solubility (mole fraction) (in isopropanol, 313.15 K): 0.0269
- solubility (mole fraction) (in isopropanol, 318.15 K): 0.0349
- solubility (mole fraction) (in isopropanol, 323.15 K): 0.0455
- solubility (mole fraction) (in methanol, 278.15 K): 0.00232
- solubility (mole fraction) (in methanol, 283.15 K): 0.00335
- solubility (mole fraction) (in methanol, 288.15 K): 0.00472
- solubility (mole fraction) (in methanol, 293.15 K): 0.00676
- solubility (mole fraction) (in methanol, 298.15 K): 0.0092
- solubility (mole fraction) (in methanol, 303.15 K): 0.0127
- solubility (mole fraction) (in methanol, 308.15 K): 0.0173
- solubility (mole fraction) (in methanol, 313.15 K): 0.0234
- solubility (mole fraction) (in methanol, 318.15 K): 0.0308
- solubility (mole fraction) (in methanol, 323.15 K): 0.0412
- solubility (mole fraction) (in n-butanol, 278.15 K): 0.00706
- solubility (mole fraction) (in n-butanol, 283.15 K): 0.00947
- solubility (mole fraction) (in n-butanol, 288.15 K): 0.0127
- solubility (mole fraction) (in n-butanol, 293.15 K): 0.0164
- solubility (mole fraction) (in n-butanol, 298.15 K): 0.0211
- solubility (mole fraction) (in n-butanol, 303.15 K): 0.0268
- solubility (mole fraction) (in n-butanol, 308.15 K): 0.0346
- solubility (mole fraction) (in n-butanol, 313.15 K): 0.0439
- solubility (mole fraction) (in n-butanol, 318.15 K): 0.0551
- solubility (mole fraction) (in n-butanol, 323.15 K): 0.0682
- solubility (mole fraction) (in n-heptane, 278.15 K): 0.000112
- solubility (mole fraction) (in n-heptane, 283.15 K): 0.00018
- solubility (mole fraction) (in n-heptane, 288.15 K): 0.000281
- solubility (mole fraction) (in n-heptane, 293.15 K): 0.000425
- solubility (mole fraction) (in n-heptane, 298.15 K): 0.000617
- solubility (mole fraction) (in n-heptane, 303.15 K): 0.000914
- solubility (mole fraction) (in n-heptane, 308.15 K): 0.00135
- solubility (mole fraction) (in n-heptane, 313.15 K): 0.00198
- solubility (mole fraction) (in n-heptane, 318.15 K): 0.00284
- solubility (mole fraction) (in n-heptane, 323.15 K): 0.00402
- solubility (mole fraction) (in n-propanol, 278.15 K): 0.00527
- solubility (mole fraction) (in n-propanol, 283.15 K): 0.0071
- solubility (mole fraction) (in n-propanol, 288.15 K): 0.00969
- solubility (mole fraction) (in n-propanol, 293.15 K): 0.0131
- solubility (mole fraction) (in n-propanol, 298.15 K): 0.0171
- solubility (mole fraction) (in n-propanol, 303.15 K): 0.0227
- solubility (mole fraction) (in n-propanol, 308.15 K): 0.0294
- solubility (mole fraction) (in n-propanol, 313.15 K): 0.0378
- solubility (mole fraction) (in n-propanol, 318.15 K): 0.0485
- solubility (mole fraction) (in n-propanol, 323.15 K): 0.0614
- solubility (mole fraction) (in toluene, 278.15 K): 0.0797
- solubility (mole fraction) (in toluene, 283.15 K): 0.0907
- solubility (mole fraction) (in toluene, 288.15 K): 0.102
- solubility (mole fraction) (in toluene, 293.15 K): 0.115
- solubility (mole fraction) (in toluene, 298.15 K): 0.13
- solubility (mole fraction) (in toluene, 303.15 K): 0.146
- solubility (mole fraction) (in toluene, 308.15 K): 0.162
- solubility (mole fraction) (in toluene, 313.15 K): 0.182
- solubility (mole fraction) (in toluene, 318.15 K): 0.203
- solubility (mole fraction) (in toluene, 323.15 K): 0.225
